Source: patent US20230116733A1, “NOVEL INDAZOLE DERIVATIVE AND USE THEREOF” (KOREA RESEARCH INSTITUTE OFCHEMICAL TECHNOLOGY, priority 2019, published 2023)
Counter-ions that a name gives are not always drawn. Like-named read-outs stand apart in the source and are kept apart here.

Assays:
TRIB2 = molecular target: T1, TRIB2 (Homo sapiens, UniProt Q92519); assay: TRIB2 kinase activity assay (Eurofins, 33P-ATP filter binding); format: biochemical; design: purchased Eurofins
T1 sequence (Q92519 1-343): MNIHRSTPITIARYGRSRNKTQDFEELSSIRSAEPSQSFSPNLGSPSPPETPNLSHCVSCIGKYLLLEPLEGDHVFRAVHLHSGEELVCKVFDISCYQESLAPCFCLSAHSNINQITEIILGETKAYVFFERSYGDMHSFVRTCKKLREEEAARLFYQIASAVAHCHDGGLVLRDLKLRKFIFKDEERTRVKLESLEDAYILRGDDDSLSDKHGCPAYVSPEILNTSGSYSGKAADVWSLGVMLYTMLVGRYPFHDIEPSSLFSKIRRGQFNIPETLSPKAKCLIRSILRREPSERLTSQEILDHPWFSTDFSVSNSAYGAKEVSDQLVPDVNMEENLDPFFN
Protocol: TRIB2 kinase activity assay was conducted in Eurofins. […] Afterward, the reaction was terminated with 0.5% phosphoric acid.

HepG2 = assay: Assay for anticancer activity, cell viability (Cell Counting Kit-8); format: cell-based; details: HepG2 cells, 10 μM compound, 3 days
Protocol: (§1) Assay for anticancer activity was conducted as follows. Corresponding cancer cells were seeded at a density of 4,000 cells/well into 96-well plates and stabilized for 24 hours. Thereafter, the cells in each well were treated with 10 μM of the each of the compounds for 3 days. Then, cell viability was assayed using Cell Counting Kit-8 from Dojindo.

A549 = assay: as above; format: cell-based; details: A549 cells, 10 μM compound, 3 days
Protocol: as §1

[1] = human TRIB2, 15 μM gamma-33P-ATP, 120 minutes at room temperature, read-out: TRIB2 Kimase activity assay IC50

Row | SMILES | IC50 (TRIB2; [1]) [nM] | Cell viability (% of Con. 10 μM) HepG2 (HepG2) | Cell viability (% of Con. 10 μM) A549 (A549) | IC50 (TRIB2) [nM]
1 | O=C(NC1CCN(C(=O)c2ccccc2)CC1)c1nn(C(=O)c2ccccc2)c2ccc(-c3cccnc3F)cc12 [Compound 10, 1-benzoyl-N-(1-benzoylpiperidin-4-yl)-5-(2-fluoropyridin-3-yl)-1H-indazole-3-carboxamide] | 10 to 100 |  |  | 
2 | O=C(NC1CCN(C(=O)C2CC2)CC1)c1nn(C(=O)C2CC2)c2ccc(-c3cccnc3F)cc12 [Compound 11, 1-(cyclopropanecarbonyl)-N-(1-(cyclopropanecarbonyl)piperidin-4-yl)-5-(2-fluoropyridin-3-yl)-1H-indazole-3-carboxamide] | 100 to 1000 |  |  | 
3 | O=C(N[C@H]1CC[C@H](O)CC1)c1n[nH]c2ccc(-c3cccnc3F)cc12 [Compound 16, 5-(2-fluoropyridin-3-yl)-N-((1r,4r)-4-hydroxycyclohexyl)-1H-indazole-3-carboxamide] | 100 to 1000 |  |  | 
4 | N[C@H]1CC[C@@H](NC(=O)c2n[nH]c3ccc(-c4cccnc4F)cc23)CC1 [Compound 18, N-((1s, 4s)-4-aminocyclohexyl)-5-(2-fluoropyridin-3-yl)-1H-indazole-3-carboxamide] | 100 to 1000 |  |  | 
5 | N[C@H]1CC[C@H](NC(=O)c2n[nH]c3ccc(-c4cccnc4F)cc23)CC1 [Compound 19, N-((1r, 4r)-4-aminocyclohexyl)-5-(2-fluoropyridin-3-yl)-1H-indazole-3-carboxamide] | 100 to 1000 |  |  | 
6 | O=C(c1n[nH]c2ccc(-c3cccnc3F)cc12)N1CCc2ccccc2C1 [Compound 21, (3,4-dihydroisoquinolin-2-(1H)-yl)(5-(2-fluoropyridin-3-yl)-1H-indazol-3-yl)methanone] | 100 to 1000 |  |  | 
7 | O=C(Nc1ccncc1)c1n[nH]c2ccc(-c3cn[nH]c3)cc12 [Compound 26, 5-(1H-pyrazol-4-yl)-N-(pyridin-4-yl)-1H-indazole-3-carboxamide] | 10 to 100 | 24 % of Con. | 30 % of Con. | 
8 | Cn1cc(-c2ccc3[nH]nc(C(=O)Nc4ccncc4)c3c2)cn1 [Compound 29, 5-(1-methyl-1H-pyrazol-4-yl)-N-(pyridin-4-yl)-1H-indazole-3-carboxamide] | 10 to 100 | 16 % of Con. | 31 % of Con. | 
9 | O=C(Nc1ccncc1)c1n[nH]c2ccc(-c3ccoc3)cc12 [Compound 34, 5-(furan-3-yl)-N-(pyridin-4-yl)-1H-indazole-3-carboxamide] | 10 to 100 | 49 % of Con. | 51 % of Con. | 
10 | CCCn1cc(-c2ccc3[nH]nc(C(=O)Nc4ccncc4)c3c2)cn1 [Compound 36, 5-(1-propyl-1H-pyrazol-4-yl)-N-(pyridin-4-yl)-1H-indazole-3-carboxamide] | 1 to 10 | 15 % of Con. | 28 % of Con. | 
11 | O=Cc1cc2c(cc1-c1ccc3[nH]nc(C(=O)Nc4ccncc4)c3c1)OCO2 [Compound 52, 5-(6-formylbenzo[d][1,3]dioxol-5-yl)-N-(pyridin-4-yl)-1H-indazole-3-carboxamide] |  | 32 % of Con. | 39 % of Con. | 10 to 100
12 | CC1(C)NCCc2ccc(NC(=O)c3n[nH]c4ccc(-c5cccnc5F)cc34)cc21 [Compound 59, N-(1,1-dimethyl-1,2,3,4-tetrahydroisoquinolin-7-yl)-5-(2-fluoropyridin-3-yl)-1H-indazole-3-carboxamide] | 1 to 10 | 6 % of Con. | 2 % of Con. | 
13 | O=C(Nc1ccc2c(c1)CCNC2)c1n[nH]c2ccc(-c3cccnc3F)cc12 [Compound 64, 5-(2-fluoropyridin-3-yl)-N-(1,2,3,4-tetrahydroisoquinolin-6-yl)-1H-indazole-3-carboxamide] | 1 to 10 | 7 % of Con. | 8 % of Con. | 
14 | Cn1ncc2c(NC(=O)c3n[nH]c4ccc(-c5cccnc5F)cc34)ccnc21 [Compound 65, 5-(2-fluoropyridin-3-yl)-N-(1-methyl-1H-pyrazolo[3,4-b]pyridin-4-yl)-1H-indazole-3-carboxamide] | 10 to 100 | 28 % of Con. | 24 % of Con. | 
15 | O=C(Nc1ccncc1)c1nn(C2CCCCO2)c2ccc(-c3cccnc3F)cc12 (stereo not drawn) [Compound 66, 5-(2-fluoropyridin-3-yl)-N-(pyridin-4-yl)-1-(tetrahydro-2H-pyran-2-yl)-1H-indazole-3-carboxamide] |  | 11 % of Con. | 55 % of Con. | 10 to 100

Now from value to molecule, other results behind:

Row | IC50 (TRIB2; [1]) [nM] | SMILES | Cell viability (% of Con. 10 μM) HepG2 (HepG2) | Cell viability (% of Con. 10 μM) A549 (A549) | IC50 (TRIB2) [nM]
16 | 10 to 100 | O=C(NC1CCN(C(=O)c2ccccc2)CC1)c1n[nH]c2ccc(-c3cccnc3F)cc12 [Compound 12, N-(1-benzoylpiperidin-4-yl)-5-(2-fluoropyridin-3-yl)-1H-indazole-3-carboxamide] |  |  | 
17 | 10 to 100 | O=C(NC1CCNCC1)c1n[nH]c2ccc(-c3ccnc(F)c3)cc12 [Compound 13, 5-(2-fluoropyridin-4-yl)-N-(piperidin-4-yl)-1H-indazole-3-carboxamide] |  |  | 
18 | 100 to 1000 | O=C(NC1CCCCC1)c1n[nH]c2ccc(-c3cccnc3F)cc12 [Compound 14, N-Cyclohexyl-5-(2-fluoropyridin-3-yl)-1H-indazole-3-carboxamide] |  |  | 
19 | 10 to 100 | O=C(NC1CCNC1)c1n[nH]c2ccc(-c3cccnc3F)cc12 (stereo not drawn) [Compound 20, 5-(2-fluoropyridin-3-yl)-N-(pyrrodin-3-yl)-1H-indazole-3-carboxamide] |  |  | 
20 | 100 to 1000 | O=C(NCCN1CCOCC1)c1n[nH]c2ccc(-c3cccnc3F)cc12 [Compound 22, 5-(2-fluoropyridin-3-yl)-N-(2-morpholinoethyl)-1H-indazole-3-carboxamide] |  |  | 
21 | 1 to 10 | O=C(Nc1ccc2c(c1)CN(C(=O)C(F)(F)F)CC2)c1n[nH]c2ccc(-c3cccnc3F)cc12 [Compound 24, 5-(2-fluoropyridin-3-yl)-N-(2-(2,2,2-trifluoroacetyl)-1,2,3,4-tetrahydroisoquinolin-7-yl)-1H-indazole-3-carboxamide] | 10 % of Con. |  | 
22 | 10 to 100 | CC(C)n1cc(-c2ccc3[nH]nc(C(=O)Nc4ccncc4)c3c2)cn1 [Compound 28, 5-(1-isopropyl-1H-pyrazol-4-yl)-N-(pyridin-4-yl)-1H-indazole-3-carboxamide] | 16 % of Con. | 17 % of Con. | 
23 | 1 to 10 | O=C(Nc1ccncc1)c1n[nH]c2ccc(-c3cnn(Cc4ccccc4)c3)cc12 [Compound 33, 5-(1-benzyl-1H-pyrazol-4-yl)-N-(pyridin-4-yl)-1H-indazole-3-carboxamide] |  | 20 % of Con. | 
24 | 10 to 100 | O=C(Nc1ccncc1)c1n[nH]c2ccc(-c3ccc(N4CCNCC4)cc3)cc12 [Compound 46, 5-(4-(piperazin-1-yl)phenyl)-N-(pyridin-4-yl)-1H-indazole-3-carboxamide hydrochloride] | 46 % of Con. | 58 % of Con. | 
25 | 10 to 100 | O=Cc1ccc(-c2ccc3[nH]nc(C(=O)Nc4ccncc4)c3c2)o1 [Compound 47, 5-(5-formylfuran-2-yl)-N-(pyridin-4-yl)-1H-indazole-3-carboxamide] | 32 % of Con. | 55 % of Con. | 
26 | 10 to 100 | O=C(NCc1ccncc1)c1n[nH]c2ccc(-c3cccnc3F)cc12 [Compound 51, 5-(2-fluoropyridin-3-yl)-N-(pyridin-4-ylmethyl)-1H-indazole-3-carboxamide] | 37 % of Con. | 44 % of Con. | 
27 | 1 to 10 | O=C(Nc1ccc2c(c1)CN(C(=O)C(F)(F)F)CC2)c1nn(C2CCCCO2)c2ccc(-c3cccnc3F)cc12 (stereo not drawn) [Compound 53, 5-(2-fluoropyridin-3-yl)-1-(tetrahydro-2H-pyran-2-yl)-N-(2-(2,2,2-trifluoroacetyl)-1,2,3,4-tetrahydroisoquinolin-7-yl)-1H-indazole-3-carboxamide] | 10 % of Con. | 13 % of Con. | 
28 | 1 to 10 | O=C(Nc1ccc2c(c1)CNCC2)c1n[nH]c2ccc(-c3cccnc3F)cc12 [Compound 55, 5-(2-fluoropyridin-3-yl)-N-(1,2,3,4-tetrahydroisoquinolin-7-yl)-1H-indazole-3-carboxamide hydrochloride] | 12 % of Con. | 10 % of Con. | 
29 | 1 to 10 | CC1NCCc2ccc(NC(=O)c3n[nH]c4ccc(-c5cccnc5F)cc34)cc21 (stereo not drawn) [Compound 63, 5-(2-fluoropyridin-3-yl)-N-(1-methyl-1,2,3,4-tetrahydroisoquinolin-7-yl)-1H-indazole-3-carboxamide] | 7 % of Con. | 4 % of Con. | 
